Measured values published in PubChem BioAssay AID504440 (Sanford-Burnham Center for Chemical Genomics, 2011).
Where “and” joins values, the source holds several entries; their conditions need not be identical. Equal values may be shown once. Calls of active or inactive are those of the source.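 How the source made its calls: active means mean IC50 below 5 µM in the confirmatory dose response test; inactive means the rest.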

test system: AML12 mouse hepatocytes, BODIPY lipid droplet imaging; experiment: blockers of lipid droplet accumulation in AML12 cells – imaging, AML12 mouse hepatocytes, set 2, SAR follow-up (AID 504440)

Compound	IC50
COc1ccc(CCNC(=O)Cn2cccc2C(=O)c2ccccc2C)cc1OC	> 10 µM (inactive)
CCOc1cc(CCNC(=O)c2cc3ccccc3n2C)ccc1OC	1.04 µM
CCOc1ccc(CCNC(=O)c2cc3ccsc3n2CC)cc1OCC	0.0779 µM
COc1ccc(CCNC(=O)CSc2cc(=O)n(C)c3ccccc23)cc1OC	> 10 µM (inactive)
CCOc1ccc(CCNC(=O)COC(=O)c2ccc(OC)c(OC)c2OC)cc1OCC	0.0375 µM
CCOc1cc(CCNC(=O)c2cc(-c3ccccc3)c(N3CCOCC3)s2)ccc1OC	0.0428 µM
CCOc1ccc(CCNC(=O)c2cc3ccsc3n2CC)cc1OC	0.501 µM
CCn1c(C(=O)NCc2cc(OC)c(OC)c(OC)c2)cc2ccsc21	3.02 µM
CCOc1ccc(CCNC(=O)c2cc(-c3ccccc3)c(N3CCOCC3)s2)cc1OC	0.0216 µM
CCOc1ccc(CCNC(=O)Cn2cccc2C(=O)c2ccccc2)cc1OCC	0.418 µM
CCn1c(C(=O)NCCc2ccc(OC)c(OC)c2)cc2ccsc21	2.15 µM
CCOc1ccc(CCNC(=O)COc2cc(=O)n(C)c3ccccc23)cc1OCC	0.945 µM
CCn1c(C(=O)NCc2cc(OC)c(OC)c(OC)c2)cc2sccc21	4.82 µM
CCOc1ccc(CCNC(=O)c2cc(-c3ccccc3)c(N3CCOCC3)s2)cc1OCC	0.0061 µM and 0.00639 µM
CCOc1ccc(CCNC(=O)COC(=O)c2cc(OC)c(OC)c(OC)c2)cc1OCC	0.104 µM
COc1ccc(NC(=O)c2cc3ccsc3n2C)cc1OC	> 10 µM (inactive)
CCOc1ccc(CCNC(=O)c2cc3ccsc3n2C)cc1OC	1.09 µM
CCOc1ccc(CCNC(=O)c2cc3sc(Cl)cc3n2C)cc1OCC	0.0697 µM
CCn1c(C(=O)NCCc2ccc(OC)c(OC)c2)cc2sc(Cl)cc21	1.35 µM
CCOc1ccc(CCNC(=O)Cn2ncn3nc(-c4ccc(OC)cc4)cc3c2=O)cc1OCC	0.129 µM
CCOc1ccc(CCNC(=O)CCOc2cc(C)ccc2C)cc1OCC	0.0678 µM
Cn1c(C(=O)NCc2ccc3c(c2)OCO3)cc2ccsc21	> 10 µM (inactive)
O=C(NCCc1ccc2c(c1)OCO2)c1ccc(N2CCOCC2)s1	> 10 µM (inactive)
CCOc1cc(CCNC(=O)CSc2cc(=O)n(C)c3ccccc23)ccc1OC	6.38 µM (inactive)
CCn1c(C(=O)Nc2ccc3c(c2)OCO3)cc2sccc21	> 10 µM (inactive)
COc1ccc(CCNC(=O)c2cc3sccc3n2C)cc1OC	8.37 µM (inactive)

Compound	IC50
COc1ccc(CNC(=O)c2cc3ccsc3n2C)cc1OC	> 10 µM (inactive)
CCOc1ccc(CCNC(=O)c2cc3ccsc3n2C)cc1OCC	0.138 µM
CCOc1ccc(CCNC(=O)CCC(=O)N2CCOc3ccc(C)cc32)cc1OCC	0.235 µM
CCOc1ccc(CCNC(=O)CCc2nnc3ccc(N4CCCC4)nn23)cc1OCC	0.771 µM
CCOc1ccc(CCNC(=O)c2cc3ccccc3n2C)cc1OC	0.804 µM
CCOc1ccc(CCNC(=O)CN2C(=O)c3cccnc3Oc3ccc(C)cc32)cc1OCC	0.13 µM
CCOc1ccc(CCNC(=O)c2cc3sccc3[nH]2)cc1OCC	0.639 µM
CCOc1ccc(CCNC(=O)CSc2cc(=O)n(CC)c3ccccc23)cc1OCC	0.987 µM
CCn1c(C(=O)Nc2ccc(OC)c(OC)c2)cc2sccc21	> 10 µM (inactive)
Cn1c(C(=O)NCCc2ccc3c(c2)OCO3)cc2ccccc21	> 10 µM (inactive)
Cn1c(=O)cc(SCC(=O)Nc2ccc3c(c2)OCO3)c2ccccc21	> 10 µM (inactive)
COc1ccc(CCNC(=O)c2cc3ccccc3n2C)cc1OC	> 10 µM (inactive)
Cn1c(=O)cc(SCC(=O)NCCc2ccc3c(c2)OCO3)c2ccccc21	> 10 µM (inactive)
CCOc1cc(CCNC(=O)COc2cc(=O)n(C)c3ccccc23)ccc1OC	8.93 µM (inactive)
CCOc1ccc(CCNC(=O)c2cc3sccc3n2CC)cc1OCC	0.0399 µM
CCn1c(C(=O)NCc2ccc3c(c2)OCO3)cc2sccc21	> 10 µM (inactive)
CCOc1ccc(CCNC(=O)Cn2nc(C)c3c(C)n(-c4ccccc4)nc3c2=O)cc1OCC	0.187 µM
CCOc1ccc(CCNC(=O)CCC(=O)N2CCOc3ccccc32)cc1OCC	0.199 µM
CCn1c(C(=O)NCc2ccc(OC)c(OC)c2)cc2ccsc21	> 10 µM (inactive)
CCOc1ccc(CCNC(=O)COC(=O)c2cc(OC)cc(OC)c2)cc1OCC	1.09 µM
CCn1c(C(=O)Nc2ccc(OC)c(OC)c2)cc2ccsc21	> 10 µM (inactive)
CCOc1ccc(CCNC(=O)CSc2cc(=O)n(C)c3ccccc23)cc1OC	3.03 µM
CCOc1cc(CCNC(=O)c2cc3sccc3n2CC)ccc1OC	0.063 µM
CCOc1cc(CCNC(=O)c2cc3ccsc3n2C)ccc1OC	0.641 µM
CCOc1ccc(CCNC(=O)c2cc3sccc3n2C)cc1OCC	0.124 µM
CCOc1ccc(CCNC(=O)CSc2cc(=O)n(C)c3ccccc23)cc1OCC	0.564 µM and 0.526 µM

Compound	IC50
Cn1c(C(=O)Nc2ccc3c(c2)OCO3)cc2ccsc21	> 10 µM (inactive)
COc1ccc(CCNC(=O)c2cc3sc(Cl)cc3n2C)cc1OC	7.02 µM (inactive)
CCOc1ccc(CCNC(=O)c2cc3sccc3n2CC)cc1OC	0.261 µM
CCOc1ccc(CCNC(=O)CCc2nc(-c3ccc(OC)cc3)no2)cc1OCC	0.206 µM
CCOc1ccc(CCNC(=O)c2nnc(Cc3ccc(F)cc3)o2)cc1OCC	0.348 µM
COc1ccc(CNC(=O)c2cc(-c3ccccc3)c(N3CCOCC3)s2)cc1OC	0.101 µM
CCn1c(C(=O)Nc2ccc3c(c2)OCO3)cc2ccsc21	> 10 µM (inactive)
CCOc1ccc(CCNC(=O)CN2CCN(Cc3ccccc3C)C2=O)cc1OCC	0.344 µM
CCOc1ccc(CCNC(=O)CCc2nnc3ccc(N4CCCCC4)nn23)cc1OCC	0.199 µM
COc1ccc(CNC(=O)c2ccc(N3CCOCC3)s2)cc1OC	> 10 µM (inactive)
COc1cc(CNC(=O)c2cc3ccsc3n2C)cc(OC)c1OC	> 10 µM (inactive)
COc1ccc(CNC(=O)CSc2cc(=O)n(C)c3ccccc23)cc1OC	> 10 µM (inactive)
CCOc1ccc(CCNC(=O)C2CC=CCC2C(=O)OC(C)C)cc1OCC (stereo not drawn)	0.26 µM
COc1cc(CNC(=O)CSc2cc(=O)n(C)c3ccccc23)cc(OC)c1OC	> 10 µM (inactive)
CCOc1cc(CCNC(=O)c2cc3sccc3[nH]2)ccc1OC	2.19 µM
CCOc1cc(CCNC(=O)c2ccc(N3CCOCC3)s2)ccc1OC	2.34 µM
COc1ccc(CCNC(=O)COC(=O)c2cc(OC)c(OC)cc2OC)cc1OC	> 10 µM (inactive)
CCOc1ccc(CCNC(=O)CSc2cc(=O)n(C)c3cc(Cl)ccc23)cc1OCC	0.504 µM
COc1ccc(CCNC(=O)c2cc(-c3ccccc3)c(N3CCOCC3)s2)cc1OC	0.271 µM and 0.186 µM
Cn1c(=O)cc(SCC(=O)NCc2ccc3c(c2)OCO3)c2ccccc21	> 10 µM (inactive)
CCOc1ccc(CCNC(=O)Cn2cccc2C(=O)c2ccccc2C)cc1OCC	0.349 µM
CCOc1ccc(CCNC(=O)c2ccc(N3CCOCC3)s2)cc1OCC	0.384 µM
COc1ccc(CCNC(=O)c2cc(-c3ccccc3)c(N3CCOCC3)s2)c(OC)c1OC	0.0883 µM
CCOc1ccc(CCNC(=O)CCC(=O)N2CCSc3ccccc32)cc1OCC	0.0693 µM
O=C(NCCc1ccc2c(c1)OCO2)c1cc(-c2ccccc2)c(N2CCOCC2)s1	3.26 µM
O=C(NCCc1ccc2c(c1)OCO2)c1cc2sccc2[nH]1	> 10 µM (inactive)
